# Where “and” joins values, the source holds several entries; their conditions need not be identical. Equal values may be shown once.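 Protocol summary: plate cells (96-well), add compound at 5 concentrations, incubate 48 h, interpolate endpoints linearly. At the GI50, growth is halved. TGI: total growth inhibition.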
# Tests used:
# Test in all cases: NCI-60 cell line screen, 48 h
# UACC-257 melanoma = test system: UACC-257 melanoma
# NCI-H226 lung = test system: NCI-H226 lung
# MCF7 breast = test system: MCF7 breast
# MOLT-4 leukemia = test system: MOLT-4 leukemia
# HOP-92 NSCLC = test system: HOP-92 NSCLC
# SK-MEL-5 melanoma = test system: SK-MEL-5 melanoma
# SNB-75 CNS = test system: SNB-75 CNS
# SK-MEL-28 melanoma = test system: SK-MEL-28 melanoma
# NCI-H522 lung = test system: NCI-H522 lung
# K-562 leukemia = test system: K-562 leukemia
SMILES,TGI (UACC-257 melanoma),TGI (NCI-H226 lung),TGI (MCF7 breast),TGI (MOLT-4 leukemia),TGI (HOP-92 NSCLC),TGI (SK-MEL-5 melanoma),TGI (SNB-75 CNS),TGI (SK-MEL-28 melanoma),TGI (NCI-H522 lung),TGI (K-562 leukemia),GI50 (NCI-H226 lung),GI50 (MCF7 breast),GI50 (MOLT-4 leukemia),GI50 (HOP-92 NSCLC),GI50 (SK-MEL-5 melanoma),GI50 (SNB-75 CNS),GI50 (SK-MEL-28 melanoma),GI50 (NCI-H522 lung),GI50 (K-562 leukemia)
CC(NNC(=O)c1ccncc1)c1cccc(C(F)(F)F)c1 (stereo unspecified),> 100 µM,> 100 µM,> 100 µM,> 100 µM,> 100 µM,> 100 µM,> 100 µM,> 100 µM,> 100 µM,> 100 µM,,,,,,,,,
COc1ccc(C2=NNC(=O)c3ccccc3N2c2nc(-c3cccs3)nc3cc(OC)c(OC)cc23)cc1,88.2 µM,20.6 µM,9 µM,> 100 µM,7.97 µM,17.3 µM,14.1 µM,5 µM,88 µM,> 100 µM,,,,,,,,,
O=c1c2c3c(sc2nc2n1NC=NN2)CCCC3,41.9 µM,49.8 µM,> 54.2 µM,31.7 µM,38.5 µM,31.7 µM,59.1 µM,36.1 µM,36.4 µM,6.81 µM,,,,,,,,,
Nc1ccn(C2CCC(COP(=O)(O)OCC(O)COP(=O)(O)OCC3OC(n4cc(F)c(=O)[nH]c4=O)CC3O)O2)c(=O)n1 (stereo unspecified),> 100 µM,> 100 µM,> 100 µM,> 100 µM,4.59 µM,> 21 µM,> 100 µM,> 100 µM,> 100 µM,> 100 µM,,,,,,,,,
NC1=Nc2ccccc2Sc2cccc(F)c21,> 100 µM,> 100 µM,> 100 µM,> 100 µM,> 100 µM,> 100 µM,> 100 µM,> 100 µM,> 100 µM,> 100 µM,,,,,,,,,
Cc1ccnc(Nc2[nH]c(C(=O)c3ccc(Cl)cc3)c(N)c2C(=S)Nc2ccccc2)c1,32.7 µM,45.6 µM,31.5 µM,48.5 µM,35.3 µM,,39.7 µM,35.9 µM,27.1 µM,52.4 µM,,,,,,,,,
COC(=O)c1c2c(cc3c1CC1(Cc4ccccc4C1)C3)CCC2,47 µM,> 100 µM,23.4 µM,40.2 µM,> 100 µM,31.7 µM,> 100 µM,> 100 µM,35.2 µM,24.3 µM,,,,,,,,,
C=C1CCOC2(C(O)C(C)(O)CO)NC(=O)C1(O)NC2=O (stereo unspecified),> 100 µM,> 100 µM,> 100 µM,> 100 µM,> 100 µM,> 100 µM,> 100 µM,> 100 µM,> 100 µM,> 100 µM,,,,,,,,,
CN(C)CC1CCC/C(=C\c2ccc(OC(=O)/C=C/c3ccc(Cl)cc3)cc2)C1=O (stereo unspecified),32.6 µM,20.2 µM,4.95 µM,2.86 µM,4.34 µM,9.46 µM,24.9 µM,14.7 µM,1.91 µM,4.04 µM,,,,,,,,,
O=C(NC1C/C(=N/O)c2c(Br)sc(Br)c21)C(F)(F)F (stereo unspecified),72.3 µM,97.7 µM,> 100 µM,> 100 µM,32.9 µM,54.4 µM,> 100 µM,,> 100 µM,38.4 µM,,,,,,,,,
CCCN(CCC)C(=O)c1c(N2CCN(C)CC2)c2cccnc2n2c(C)cnc12,> 100 µM,> 100 µM,> 100 µM,> 100 µM,> 100 µM,> 100 µM,> 100 µM,> 100 µM,> 100 µM,> 100 µM,,,,,,,,,
COc1cc(S(=O)(=O)Nc2ccc(-c3csc(N4C(=O)CSC4c4ccccc4O)n3)cc2)ccc1Cl (stereo unspecified),97.6 µM,> 100 µM,> 100 µM,> 100 µM,82.1 µM,> 100 µM,92.2 µM,88.2 µM,55.6 µM,> 100 µM,,,,,,,,,
COC(=O)c1ccccc1C1CN=NC12Cc1ccc3c(c1C2=O)CCC3 (stereo unspecified),> 100 µM,> 100 µM,> 100 µM,> 100 µM,> 100 µM,> 100 µM,> 100 µM,> 100 µM,54.7 µM,> 100 µM,,,,,,,,,
COc1cccc(CCNc2c(C#N)c3n(c4ccccc4[n+]3C)c3ncccc23)c1,46.3 µM,45.9 µM,5.13 µM,7.45 µM,> 58.9 µM,28.8 µM,12.8 µM,44.1 µM,10.3 µM,> 100 µM,,,,,,,,,
COc1cc(O)c(Cc2ccccc2O)c(O)c1C(=O)CCc1ccccc1,16.1 µM,32 µM,18 µM,10.5 µM,10.8 µM,9.36 µM,19.7 µM,27.2 µM,9.21 µM,20 µM,,,,,,,,,
COC(=O)C12Oc3ccc(-c4ccc5c(c4O)C(O)=C4C(=O)CC(C)C(O)C4(C(=O)OC)O5)c(O)c3C(O)=C1C(=O)CC(C)C2O (stereo unspecified),1.34 µM,4.36 µM,> 100 µM,2.9 µM,> 22.7 µM,0.147 µM,2.92 µM,0.741 µM,0.309 µM,> 100 µM,,,,,,,,,

SMILES,TGI (UACC-257 melanoma),TGI (NCI-H226 lung),TGI (MCF7 breast),TGI (MOLT-4 leukemia),TGI (HOP-92 NSCLC),TGI (SK-MEL-5 melanoma),TGI (SNB-75 CNS),TGI (SK-MEL-28 melanoma),TGI (NCI-H522 lung),TGI (K-562 leukemia),GI50 (NCI-H226 lung),GI50 (MCF7 breast),GI50 (MOLT-4 leukemia),GI50 (HOP-92 NSCLC),GI50 (SK-MEL-5 melanoma),GI50 (SNB-75 CNS),GI50 (SK-MEL-28 melanoma),GI50 (NCI-H522 lung),GI50 (K-562 leukemia)
C=C(C)CCC1C=[N+]([O-])OC(C)(C)C1(C)C (stereo unspecified),> 100 µM,> 100 µM,> 100 µM,> 100 µM,> 100 µM,> 100 µM,> 100 µM,,> 100 µM,> 100 µM,,,,,,,,,
O=c1[nH]cnc2c1cnn2Cc1cnnn1COCCO,> 100 µM,> 100 µM,> 100 µM,> 100 µM,> 100 µM,> 100 µM,> 100 µM,> 100 µM,> 100 µM,> 100 µM,,,,,,,,,
O=C1c2cccnc2-c2nccc3c2c1nc1ccccc13,1.06 µM,0.738 µM,0.0858 µM,3.2 µM,2.54 µM,0.168 µM,1.76 µM,1.47 µM,0.281 µM,0.667 µM,,,,,,,,,
COc1cccc(OC)c1NC(=O)C(=O)Nn1c(NNC(=O)c2ccncc2)nc2ccccc2c1=O,> 100 µM,> 100 µM,> 100 µM,> 100 µM,> 100 µM,> 100 µM,> 100 µM,> 100 µM,> 100 µM,> 100 µM,,,,,,,,,
CCN(C(=O)N[C@H](C(=O)N[C@@H](CSC)C(=O)N[C@@H](C)C(=O)OC)C(C)C)c1ccccc1,25 µM,31.8 µM,31.8 µM,26.7 µM,26.3 µM,30.8 µM,27.8 µM,28.7 µM,22.3 µM,> 100 µM,,,,,,,,,
COc1ccc(-c2oc3cc(O)c(OC)c(O)c3c(=O)c2O)cc1,> 100 µM,24.4 µM,63.7 µM,12.9 µM,> 72.3 µM,34 µM,63.2 µM,> 100 µM,57.8 µM,> 53.5 µM,,,,,,,,,
COc1ccc2c(c1)/c(=C/C#N)c1c3ccccc3[n+](C)n21,19.3 µM,21.4 µM,> 55.9 µM,> 57.2 µM,5.89 µM,> 44.8 µM,9.21 µM,14.3 µM,20.4 µM,> 69.8 µM,,,,,,,,,
Cc1cc(O)c2c(c1)C(C1c3cccc(O)c3C(=O)c3c(O)cc(C)cc31)c1cccc(O)c1C2=O (stereo unspecified),1.25 µM,2.24 µM,1.18 µM,12.5 µM,0.706 µM,0.557 µM,0.855 µM,12.6 µM,3.44 µM,11.7 µM,,,,,,,,,
COc1ccc([I+]c2ccc(OC)cc2)cc1,> 100 µM,> 100 µM,> 100 µM,> 100 µM,> 100 µM,20.7 µM and 6.76 µM,> 100 µM,> 100 µM,> 100 µM,> 100 µM,14.4 µM,7.26 µM,55.4 µM,3.27 µM,1.8 µM,14.9 µM,20.6 µM,38.3 µM,2.74 µM
O=c1[nH]c(=O)n(C2CC(O)C(CO)O2)cc1Br (stereo unspecified),> 100 µM,> 100 µM,> 100 µM,> 100 µM,> 100 µM,> 100 µM,> 100 µM,> 100 µM,> 100 µM,> 100 µM,,,,,,,,,
C/C(=N\NC(N)=S)c1nc2ncccc2[nH]1,> 100 µM,> 91.4 µM,> 100 µM,> 100 µM,> 100 µM,> 100 µM,> 100 µM,> 100 µM,> 100 µM,> 100 µM,,,,,,,,,
Cc1cc(C)n(-c2nc(C)c(CCO)c(=O)[nH]2)n1,> 100 µM,> 100 µM,> 100 µM,> 100 µM,> 100 µM,> 100 µM,> 100 µM,> 100 µM,> 100 µM,> 100 µM,,,,,,,,,
COc1cc(/C=C/C(=N\NC(N)=S)c2sc(NNC(C)=O)nc2C)ccc1O,> 100 µM,> 100 µM,> 100 µM,> 100 µM,> 100 µM,> 100 µM,> 100 µM,> 100 µM,> 100 µM,> 100 µM,,,,,,,,,
CCOC(=O)N1CCC2(CC1)C[C@@](C(C)=O)(c1ccccc1)C(C)O2 (stereo partly specified),> 100 µM,> 100 µM,> 100 µM,> 100 µM,> 100 µM,> 100 µM,> 100 µM,> 100 µM,> 100 µM,> 100 µM,,,,,,,,,
COc1cc2c[n+](C)c3c4cc(OC)c(OCc5ccccc5)cc4c(OCc4ccccc4)cc3c2cc1OC,14.4 µM,43.9 µM,21.9 µM,14.2 µM,8.51 µM,6.77 µM,22.6 µM,20.2 µM,3.4 µM,> 25 µM,,,,,,,,,
CCOC(=O)NN(C(=O)OCC)C(C(=O)c1ccccc1)N(NC(=O)OCC)C(=O)OCC,> 100 µM,> 100 µM,> 100 µM,> 100 µM,> 100 µM,> 100 µM,> 100 µM,> 100 µM,> 100 µM,> 100 µM,,,,,,,,,

# Reference: PubChem BioAssay (NCI)
